In PubChem BioAssay AID434987 (Southern Research Specialized Biocontainment Screening …, 2010):
Activity calls are given as the source filed them. No rule for the calls is given here.

Test system: M. tuberculosis H37Rv growth inhibition with meropenem
Assay: dose response, H37Rv, with and without meropenem (AID 434987);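 also: growth over 7 days at 37 °C before Alamar Blue read on day 9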
[1] = M. tuberculosis H37Rv growth inhibition, measured here: IC50 without meropenem
[2] = M. tuberculosis H37Rv growth inhibition, measured here: IC90 without meropenem
[3] = measured here: IC90 with meropenem

N#Cc1c(C(F)(F)F)cc(-c2ccccc2)nc1SCC(=O)Nc1sc2c(c1C#N)CCC2
IC50: > 100 µM (inactive)
IC50 [1]: > 100 µM
IC90 [2]: > 100 µM
IC90 [3]: > 100 µM

C/C(=N\OCC(=O)Nc1nc2ccccc2s1)c1ccccc1
IC50: 13.1 µM
IC50 [1]: 47.6 µM
IC90 [2]: 54.1 µM
IC90 [3]: 35.6 µM

O=C(CCS(=O)(=O)c1ccc(F)cc1)Nc1nnc(-c2cccs2)o1
IC50: 2.94 µM
IC50 [1]: 47.2 µM
IC90 [2]: > 100 µM
IC90 [3]: > 100 µM

CCC(=O)N1CCN(c2ccc(NC(=S)NC(=O)c3ccc(OC)c([N+](=O)[O-])c3)cc2)CC1
IC50: 40.2 µM (inactive)
IC50 [1]: 79.6 µM
IC90 [2]: > 100 µM
IC90 [3]: 67.8 µM

COCCOC(=O)c1c(C)oc2ccc(OC(=O)c3c(OC)cccc3OC)cc12
IC50: > 100 µM (inactive)
IC50 [1]: > 100 µM
IC90 [2]: > 100 µM
IC90 [3]: > 100 µM

CC1CC2(CCCCC2)Nc2ccc3ccccc3c21 (centres undefined)
IC50: 49.1 µM (inactive)
IC50 [1]: 86.1 µM
IC90 [2]: 96 µM
IC90 [3]: > 100 µM

Cc1ccc(C)c(-n2c(-c3ccco3)n[nH]c2=S)c1
IC50: 14 µM
IC50 [1]: 48.9 µM
IC90 [2]: > 100 µM
IC90 [3]: > 100 µM

CC(=O)c1ccc(OCCCC(=O)OCC(=O)N2CCN(c3ccccc3)CC2)cc1
IC50: 78.7 µM (inactive)
IC50 [1]: > 100 µM
IC90 [2]: > 100 µM
IC90 [3]: > 100 µM

CS(=O)(=O)N(Cc1ccccc1)c1ccc(C(=O)N2CCN(c3cccc(Cl)c3)CC2)cc1
IC50: > 100 µM (inactive)
IC50 [1]: > 100 µM
IC90 [2]: > 100 µM
IC90 [3]: > 100 µM

O=C(CCl)N(c1ccccc1)C1CCS(=O)(=O)C1 (centres undefined)
IC50: 5.77 µM
IC50 [1]: 18.2 µM
IC90 [2]: 55.6 µM
IC90 [3]: 13.9 µM

Cc1c(C(=O)NC(=S)Nc2ccccc2N2CCCC2)cccc1[N+](=O)[O-]
IC50: 63.5 µM (inactive)
IC50 [1]: 82.6 µM
IC90 [2]: > 100 µM
IC90 [3]: > 100 µM

C/C(=N\NC(=O)c1ccncc1)c1c(O)n(-c2ccccc2)c(=O)[nH]c1=O
IC50: 2.81 µM (inactive)
IC50 [1]: 5.74 µM
IC90 [2]: > 100 µM
IC90 [3]: 3.94 µM

CCCCN(CCCC)C(=S)N/N=C/c1c(C)[nH]n(-c2ccccc2)c1=O
IC50: > 100 µM (inactive)
IC50 [1]: > 100 µM
IC90 [2]: > 100 µM
IC90 [3]: > 100 µM

COc1ccc2c(c1)c(CC(=O)Nc1ccc(C)cc1)c(C)n2C(=O)c1ccc(Cl)cc1
IC50: > 100 µM (inactive)
IC50 [1]: > 100 µM
IC90 [2]: > 100 µM
IC90 [3]: > 100 µM

CCc1ccc(N2C(=O)c3sc4nnc(-c5ccccc5)c(=O)n4c3C2=O)cc1
IC50: > 100 µM (inactive)
IC50 [1]: > 100 µM
IC90 [2]: > 100 µM
IC90 [3]: > 100 µM

COc1ccc(-c2cc3cc(OC)c(OC)cc3c(C)n2)cc1
IC50: > 100 µM (inactive)
IC50 [1]: > 100 µM
IC90 [2]: > 100 µM
IC90 [3]: > 100 µM

CC(=O)Nc1ccc(Nc2ncc([N+](=O)[O-])c(Nc3ccc(NC(C)=O)cc3)n2)cc1
IC50: 0.423 µM
IC50 [1]: 2.43 µM
IC90 [2]: > 100 µM
IC90 [3]: 45.5 µM

COc1cccc(/C=N/NC(N)=S)c1OS(=O)(=O)c1ccccc1
IC50: 19.2 µM
IC50 [1]: > 100 µM
IC90 [2]: > 100 µM
IC90 [3]: > 25 µM

COc1cc(OC)c2ccc(=O)oc2c1C(CC(=O)N1CCN(c2ccccc2)CC1)c1ccc2c(c1)OCO2 (centres undefined)
IC50: 91.1 µM (inactive)
IC50 [1]: > 100 µM
IC90 [2]: > 100 µM
IC90 [3]: > 100 µM

COc1cc(-c2nc(S(=O)(=O)c3ccc(C)cc3)c(N3CCOCC3)o2)cc(OC)c1OC
IC50: > 100 µM (inactive)
IC50 [1]: > 100 µM
IC90 [2]: > 100 µM
IC90 [3]: > 100 µM

CC(=O)Nc1ccc(SCC(=O)c2cc(C)n(CC(F)(F)F)c2C)cc1
IC50: 47.7 µM (inactive)
IC50 [1]: 53.5 µM
IC90 [2]: > 100 µM
IC90 [3]: > 100 µM

CC1CCN(CC(CS(=O)(=O)c2ccc([N+](=O)[O-])cc2)N2CCC(C)CC2)CC1 (centres undefined)
IC50: 13.7 µM (inactive)
IC50 [1]: 21 µM
IC90 [2]: 30.3 µM
IC90 [3]: 31.5 µM

CCN(CC)C(=O)C1CCCN(c2ccc([N+](=O)[O-])cc2/C=N/NC(=O)c2cccc(O)c2)C1 (centres undefined)
IC50: 48.1 µM (inactive)
IC50 [1]: 47.1 µM
IC90 [2]: 70.6 µM
IC90 [3]: 55.3 µM

C[C@H](NC(=O)c1[nH]cnc1C(=O)Nc1cccc(Cl)c1)c1ccccc1
IC50: 3.59 µM
IC50 [1]: > 100 µM
IC90 [2]: > 100 µM
IC90 [3]: > 100 µM

COc1ccc(CN(CCC#N)C(=S)NC(=O)c2ccccc2)cc1
IC50: 10.6 µM
IC50 [1]: 79.1 µM
IC90 [2]: > 100 µM
IC90 [3]: > 100 µM

COc1cc(C(=O)Oc2ccccc2/C=N/NC(=O)c2ccc(C)c(Cl)c2)cc(OC)c1OC
IC50: 1.96 µM
IC50 [1]: > 100 µM
IC90 [2]: > 100 µM
IC90 [3]: > 3.13 µM

CCOC(=O)[C@H]1[C@H]2COc3ccc(Br)cc3[C@@H]2N2C(=O)c3cc(OC)c(OC)cc3NC(=O)[C@@]12C
IC50: > 50 µM (inactive)
IC50 [1]: 80.9 µM
IC90 [2]: > 100 µM
IC90 [3]: > 50 µM

COc1ccc(NC(=O)CN2CCN(C3c4ccccc4-c4ccccc43)CC2)c(OC)c1
IC50: > 100 µM (inactive)
IC50 [1]: > 100 µM
IC90 [2]: > 100 µM
IC90 [3]: > 100 µM

OCCCn1c(C2CCCN2c2nc(-c3ccc(Cl)cc3)cs2)nc2cc(Cl)c(Cl)cc21 (centres undefined)
IC50: > 100 µM (inactive)
IC50 [1]: > 100 µM
IC90 [2]: > 100 µM
IC90 [3]: > 100 µM

CCOC(=O)c1c(C)oc2c1c(CN1CCN(C(=O)OCC)CC1)c(O)c1ccccc12
IC50: 51.5 µM (inactive)
IC50 [1]: 51.2 µM
IC90 [2]: > 100 µM
IC90 [3]: > 100 µM

Cc1cccnc1NC(=O)c1c(O)c2cccc3c2n(c1=O)CCC3
IC50: 94.4 µM (inactive)
IC50 [1]: > 100 µM
IC90 [2]: > 100 µM
IC90 [3]: > 100 µM

BrC(=C\c1ccccc1)/C=N/N1CCN(c2ccccn2)CC1
IC50: > 100 µM (inactive)
IC50 [1]: > 100 µM
IC90 [2]: > 100 µM
IC90 [3]: > 100 µM

O=c1[nH]c(CN(CCO)CCO)nc2c1C1(CCCCC1)Cc1ccccc1-2
IC50: 19.6 µM
IC50 [1]: > 100 µM
IC90 [2]: > 100 µM
IC90 [3]: > 100 µM

COCc1nnc(NC(=O)c2ccc(S(=O)(=O)N(C)c3ccccc3)cc2)o1
IC50: 17.4 µM (inactive)
IC50 [1]: 40.3 µM
IC90 [2]: > 100 µM
IC90 [3]: > 100 µM

Cc1nn(CCc2nn[nH]n2)c2nc(-c3ccc(C4CCCCC4)cc3)cc(C(F)(F)F)c12
IC50: 8.62 µM
IC50 [1]: 24.9 µM
IC90 [2]: 50 µM
IC90 [3]: > 100 µM

COc1ccc(-c2cc(-c3ccc(OC)cc3)nc(-c3ccc4c(c3)NC(=O)CO4)c2)cc1
IC50: > 100 µM (inactive)
IC50 [1]: > 100 µM
IC90 [2]: > 100 µM
IC90 [3]: > 100 µM

CSc1nnc(-c2ccc(NC(N)=S)cc2)o1
IC50: 12.2 µM
IC50 [1]: > 100 µM
IC90 [2]: > 100 µM
IC90 [3]: > 100 µM

Cc1ccc(-c2[nH][nH]c(=O)c(=O)c2N=Nc2ccccc2)cc1
IC50: 4.12 µM
IC50 [1]: 51.7 µM
IC90 [2]: > 100 µM
IC90 [3]: 86.2 µM

COc1ccc(Cn2c(=O)[nH]c3cc(C(=O)N4CCN(c5ccccc5F)CC4)ccc3c2=O)cc1
IC50: > 100 µM (inactive)
IC50 [1]: > 100 µM
IC90 [2]: > 100 µM
IC90 [3]: > 100 µM

Cc1ccc(-n2c(SCC(=O)OC(C)C)nnc2-c2ccco2)cc1
IC50: 37.6 µM (inactive)
IC50 [1]: 62 µM
IC90 [2]: > 100 µM
IC90 [3]: > 100 µM

CSc1ccc(CCNC(=O)c2cc(C)nn2-c2ccccc2)cc1
IC50: > 100 µM (inactive)
IC50 [1]: > 100 µM
IC90 [2]: > 100 µM
IC90 [3]: > 100 µM

CCCCCCCN(C(=O)CCl)c1ccccc1C
IC50: 4.49 µM
IC50 [1]: 11.8 µM
IC90 [2]: 37.3 µM
IC90 [3]: 35.2 µM

Cc1cccnc1NC(=O)c1cc2ccccc2oc1=O
IC50: 46.7 µM (inactive)
IC50 [1]: > 100 µM
IC90 [2]: > 100 µM
IC90 [3]: > 100 µM

COc1ccc(NC(=O)c2cc(Br)ccc2Cl)c(OC)c1
IC50: 23.2 µM
IC50 [1]: > 100 µM
IC90 [2]: > 100 µM
IC90 [3]: > 100 µM

CCOc1ccc(NC(=O)/C(C#N)=C/c2cn(CC(=O)O)c3ccccc23)cc1
IC50: 95.9 µM (inactive)
IC50 [1]: > 100 µM
IC90 [2]: > 100 µM
IC90 [3]: > 100 µM

CCC(=O)NC(=S)Nc1ccc(NC(=O)c2cccc([N+](=O)[O-])c2C)cc1
IC50: > 100 µM (inactive)
IC50 [1]: > 100 µM
IC90 [2]: > 100 µM
IC90 [3]: > 100 µM

CC(C)NC(=O)C(=O)NNC(=O)C12CC3CC(CC(C3)C1)C2
IC50: 15.6 µM
IC50 [1]: 81.8 µM
IC90 [2]: > 100 µM
IC90 [3]: > 100 µM

O=C(NN1C(=O)C2C(C1=O)C1C=CC2C12CC2)c1ccncc1 (centres undefined)
IC50: 12.3 µM
IC50 [1]: 55.9 µM
IC90 [2]: > 100 µM
IC90 [3]: 13.9 µM

Fc1ccc(NC(=S)NCc2cccs2)cc1
IC50: > 100 µM (inactive)
IC50 [1]: > 100 µM
IC90 [2]: > 100 µM
IC90 [3]: > 100 µM

Cc1ccc(C)c(N2CCN(CC3CC=CCC3)CC2)c1 (centres undefined)
IC50: 25.6 µM
IC50 [1]: 79.8 µM
IC90 [2]: > 100 µM
IC90 [3]: 60.7 µM

O=C(c1ccccc1)N1CCC(CC2CC(c3cccc(Br)c3)=NO2)(C(=O)NCC2CCCCC2)CC1 (centres undefined)
IC50: 46.8 µM (inactive)
IC50 [1]: > 100 µM
IC90 [2]: > 100 µM
IC90 [3]: > 100 µM

Cc1cc(C)n(-c2nc3ccccc3c(=O)n2OCC(=O)N(C)C)n1
IC50: 7.74 µM
IC50 [1]: 79.2 µM
IC90 [2]: > 100 µM
IC90 [3]: 23.3 µM

Cc1ccc(SCc2c(C#N)c3ccccc3n2C)cc1
IC50: > 100 µM (inactive)
IC50 [1]: > 100 µM
IC90 [2]: > 100 µM
IC90 [3]: > 100 µM

CCN(CC(=O)Nc1ccc2c(c1)OCCO2)C(=O)c1ccc([N+](=O)[O-])s1
IC50: 23.6 µM (inactive)
IC50 [1]: 26.7 µM
IC90 [2]: 50.7 µM
IC90 [3]: 26 µM

O=C(Nc1cccc(S(=O)(=O)NCc2ccco2)c1)c1cc(-c2ccc(F)cc2)nc2ccccc12
IC50: 97.4 µM (inactive)
IC50 [1]: > 100 µM
IC90 [2]: > 100 µM
IC90 [3]: > 100 µM

CCOC(=O)c1ccc(NC(=O)Cc2coc3cc4c(cc23)CCC4)cc1
IC50: > 100 µM (inactive)
IC50 [1]: > 100 µM
IC90 [2]: > 100 µM
IC90 [3]: > 100 µM
